Measurements taken from US6433023B1, “Compositions having anti-leishmanial activity” (The United States of America as represented by the …, priority 1997, dated 2002).
pIC50: −log10 of the molar value. Where two headings read alike, the source gives them in different places.

Tested on: Leishmania promastigotes
Assay: Testing of agents against Leishmania species in parasite culture medium (anti-leishmanial activity)
Format: cell-based
Settings: for pIC50: read-out: concentrations effective at the IC50 level; for effectiveness compared with trifluralin: comparison with trifluralin
Excerpt: […]-3,5-dinitrobenzotrifluoride (compound 1), 4-chloro-3-nitrobenzotrifluoride (compound 4), 3-amino-4-chlorobenzotrifluoride (compound 5), 2-bromo-3,5(bis(trifluoromethyl)aniline (compound 6), 4-methoxy-3-nitrobenzotrifluoride (compound 7), and 2-nitro-4-(trifluoromethyl)thiophenol (compound 8) were obtained from Aldrich Chemical Company and were used to without further purification. Trifluralin was obtained from Reidel de Haen and was used without further purification. 4-chloro-3-nitro-5-sulfonylbenzotrifluoride (compound 2) and 4-chloro-3-nitro-5-carboxybenzotrifluoride (compound 3) were obtained from the Walter Reed Army Institute of Research inventory and were used without further purification. All of the agents were initially dissolved in dimethyl sulfoxide and were then diluted at 100 fold in parasitic culture medium before being tested against Leishmania species. […]

[1] = against Leishmania species, agents dissolved in dimethyl sulfoxide, diluted 100 fold in parasitic culture medium

Row | SMILES | pIC50 [1] | pIC50 (Leishmania) | effectiveness compared with trifluralin (against Leishmania species)
1 | O=[N+]([O-])c1cc(C(F)(F)F)cc([N+](=O)[O-])c1Cl [compound 1, 4-chloro-3,5 dinitrobenzotrifluoride] | – | 6.05 | much more effective than trifluralin
2 | O=C(O)c1cc(C(F)(F)F)cc([N+](=O)[O-])c1Cl [compound 3, 4-chloro-3-nitro-5-carboxybenzotrifluoride] | 3.92 | – | –
3 | O=[N+]([O-])c1cc(C(F)(F)F)ccc1Cl [compound 4, 4-chloro-3-nitrobenzotrifluoride] | 4.46 | – | much more effective than trifluralin
4 | Nc1cc(C(F)(F)F)ccc1Cl [compound 5, 3-amino-4-chlorobenzotrifluoride] | 4.11 | – | –
5 | COc1ccc(C(F)(F)F)cc1[N+](=O)[O-] [compound 7, 4-methoxy-3-nitrobenzotrifluoride] | 4.17 | – | –

Now from value to molecule, other results behind:

Row | pIC50 [1] | SMILES | pIC50 (Leishmania) | effectiveness compared with trifluralin (against Leishmania species)
6 | 5.21 | O=[N+]([O-])C1=CC(C(F)(F)F)=CC(=S(=O)=O)C1Cl (stereo not drawn) [compound 2, 4-chloro-3-nitro-5-sulfonylbenzotrifluoride] | – | much more effective than trifluralin
7 | 4.59 | Nc1cc(C(F)(F)F)cc(C(F)(F)F)c1Br [compound 6, 2-bromo-3,5-bis(trifluoromethyl)aniline] | – | –
8 | 4.82 | O=[N+]([O-])c1cc(C(F)(F)F)ccc1S [compound 8, 2-nitro-4-(trifluoromethyl)thiophenol] | – | much more effective than trifluralin
